This is an account of results in ChEMBL document CHEMBL1121624, “Synthesis, biological evaluation, and preliminary structure-activity considerations of a series of alkylphenols as intravenous anesthetic agents” (J Med Chem, 1980).

The species named for series [1] is Mus musculus. Description: Acute toxicity measured as median lethal dose in mice; Range is 80-90. It counts as organism-based. Particulars: in vivo.
Series [2] can be described thus: Acute toxicity measured as median lethal dose in mice; Range is 140-160. Particulars: mouse, in vivo. It counts as organism-based.
The species named for series [3] is Mus musculus. Description: Duration of analgesic action in mice was determined; B = brief, < 5 min. It counts as functional, organism-based.
The species named for series [4] is Mus musculus. Description: Hypnotic activity was measured as dose which causes loss of righting reflex for a minimum period of 30s in 50% of mice; Range is 30-40. It counts as functional.
The species entered for series [5] is Mus musculus. Description: Speed of induction of analgesia in mice was determined; VS = very slow, > 15s. The series is classed as functional, organism-based.
A short description of the next series: in vivo. Particulars: mouse.
For series [6], the species on record is Mus musculus. Briefly: Speed of induction of analgesia in mice was determined; I = immediate, <10 s. The series is classed as functional, organism-based.
For series [7], the species on record is Mus musculus. Description: Hypnotic activity was measured as dose which causes loss of righting reflex for a minimum period of 30s in 50% of mice; Range is 5-10. It counts as functional.
Series [8] can be described thus: Acute toxicity measured as median lethal dose in mice. Particulars: mouse, in vivo. It counts as organism-based.
The species named for series [9] is Mus musculus. Briefly: Hypnotic activity was measured as dose which causes loss of righting reflex for a minimum period of 30s in 50% of mice; Range is 60-80. It counts as functional.
The nature of series [10]: Acute toxicity measured as median lethal dose in mice; Range is 40-45. The series is classed as organism-based. Particulars: mouse, in vivo.
The species entered for series [11] is Mus musculus. Briefly: Hypnotic activity was measured as dose which causes loss of righting reflex for a minimum period of 30s in 50% of mice; Range is 1-1.5. It counts as functional.
Series [12] can be described thus: Acute toxicity measured as median lethal dose in mice; […]. It counts as organism-based. Particulars: mouse, in vivo.
Series [13] is filed under the species Mus musculus. Description: Hypnotic activity was measured as dose which causes loss of righting reflex for a minimum period of 30s in 50% of mice. The series is classed as functional.

SMILES strings stand for the structures.

What is called LD50 is the dose expected to kill half of the subjects tested. In turn, `CCCC(C)C1(CC)C(=O)[N-]C(=S)NC1=O.[Na+]` (stereo in doubt; form 1) [THIOPENTAL SODIUM] had an LD50 in the series filed under Mus musculus [1] of 80 mg/kg.
With `Cc1cccc(C2CCCCC2)c1O`, the LD50 in series [2] came to 140 mg/kg. In the series filed under Mus musculus [3], the Duration of action entry was “Brief duration”. Further, the HD50 in the series filed under Mus musculus [4] is 30 mg/kg. Besides, in the series filed under Mus musculus [5], the Speed of induction result is given as “Very slow”.
Regarding `CC(C)c1cccc(C(C)C)c1O` [PROPOFOL], the 50% lethal dose (LD50) in “in vivo” is 50 mg/kg. Besides, in the series listed under Mus musculus [6], the Speed of induction entry is on record as “Immediate induction”. Further, the Duration of action result in the series filed under Mus musculus [3] was “Brief duration”. The molecule also gave an HD50 in the series listed under Mus musculus [7] of 5 mg/kg.
In the case of `CCc1c(C)cc(C)c(CC)c1O`, the LD50 in [8] amounted to 160 mg/kg. The HD50 in the series listed under Mus musculus [9] amounted to 60 mg/kg.
`CCOC(=O)c1cncn1[C@H](C)c1ccccc1` [ETOMIDATE]: the LD50 in [10] was determined as 40 mg/kg. Besides, the Speed of induction entry in the series filed under Mus musculus [6] is on record as “Immediate induction”. Besides, in the series listed under Mus musculus [11], the HD50 was found to be 1 mg/kg. The Duration of action entry in the series listed under Mus musculus [3] is reported as “Brief duration”.
The molecule `Cc1cc(C(C)(C)C)ccc1O` displayed an LD50 in series [12] of 180 mg/kg. In the series listed under Mus musculus [13], this molecule had an HD50 of 80 mg/kg.
